According to US12460153B2, “Method for transforming an essential oil” (PRANAROM INTERNATIONAL S.A., priority 2019, dated 2025):

Tests used:
S. aureus LMG 8064 = test: Individual activity: MIC by microdilution; type: cell-based, Staphylococcus aureus; conditions: MSSA LMG 8064 strain; PV alone
Excerpt: (§1) Within the framework of this invention, the individual activity makes reference to the antimicrobial activity exerted by the EO itself. The individual activity may, for example, be evaluated simply by measuring the MIC (minimum inhibitory concentration), which is the lowest concentration sufficient to inhibit, in vitro, the growth of a bacterial strain, after treating different bacterial strains by different EOs transformed or not according to the method of the invention.
(§2) To do this, the stock solutions of EO (EO-C and EO-T) were first diluted in DMSO at the rate of 10 μl EO in 300 μl DMSO, They were agitated and stored at ambient temperature, away from the light, in glass tubes autoclaved with threaded cap. The individual activity of the EOs was measured by the microdilution method in a 96 well tray so as to obtain the MIC, value at which a solution inhibits bacterial growth. The bacterial strains treated were S. aureus LMG 15975 (methicillin-resistant Staphylococcus aureus, hereinafter referred to as MRSA÷), E. coli LMG 8223, E. coli LMG 15862, P. aeruginosa LMG 6395, S. aureus LMG 8064, S. aureus LMG 16217 (methicillin-resistant Staphylococcus aureus, hereinafter referred to as MRSA++), E. faecalis LMG 8222, K. pneumoniae LMG 20218 and E. aerogenes LMG 2094. […]

[1] = tested on: Staphylococcus aureus LMG 15975; test: Individual activity: MIC by microdilution in 96-well tray; type: cell-based; conditions: S. aureus LMG 15975 (MRSA+); substance alone
Excerpt: as §1, §2

S. aureus LMG 16217 = test: Individual activity: MIC of antibiotic alone, microdilution; type: cell-based, Staphylococcus aureus; conditions: S. aureus LMG 16217 (MRSA++)
Protocol: as §1, with “Within the framework of this invention, the individual activity makes reference to the antimicrobial activity exerted by the EO itself.” left out
To do this, the stock solutions of EO (EO-C and EO-T) were first diluted in DMSO at the rate of 10 μl EO in 300 μl DMSO, They were agitated and stored at ambient temperature, away from the light, in glass tubes autoclaved with threaded cap. The individual activity of the EOs was measured by the microdilution method in a 96 well tray so as to obtain the MIC, value at which a solution inhibits bacterial growth. The bacterial strains treated were S. aureus LMG 15975 (methicillin-resistant Staphylococcus aureus, hereinafter referred to as MRSA÷), E. coli LMG 8223, E. coli LMG 15862, P. aeruginosa LMG 6395, S. aureus LMG 8064, S. aureus LMG 16217 (methicillin-resistant Staphylococcus aureus, hereinafter referred to as MRSA++), E. faecalis LMG 8222, K. pneumoniae LMG 20218 and E. aerogenes LMG 2094. Inocula of the bacterial strains were prepared by placing colonies of 18-24 hours of strains suspended in a sterile physiological solution (NaCl 0.85%). These inocula were then adjusted and diluted so as to obtain a final concentration of 5×10^5 CFU/ml. Concerning the test solutions, 300 μl of stock solutions of EO (diluted in DMSO) were added to 4.7 ml culture medium (for example to Mueller Hinton Broth), so as to obtain a solution of EO of 2 mg/ml which was then diluted in series by half in multi-well trays. The final percentage of DMSO in the wells is less than 5%. After inoculation, the multi-well trays were incubated for 18-24 hours at 37° C. and the presence of bacteria was viewed by adding methyl tetrazolium (MU).

MIC of PV (S. aureus LMG 8064) [µg/mL] | Individual activity MIC: PV/EO [1] [µg/mL] | MIC of the antibiotic on this strain (S. aureus LMG 16217) [µg/mL] | SMILES
0.015 | 4 | 64 | CC1(C)S[C@@H]2[C@H](NC(=O)COc3ccccc3)C(=O)N2[C@H]1C(=O)O [PV, penicillin V]
– | – | 64 | CC1(C)S[C@@H]2[C@H](NC(=O)[C@H](N)c3ccc(O)cc3)C(=O)N2[C@H]1C(=O)O [amoxicillin]
– | – | 64 | CC1(C)S[C@@H]2[C@H](NC(=O)Cc3ccccc3)C(=O)N2[C@H]1C(=O)O [penicillin G]
